Experimental data: patent publication US20080176870A1, “Heterobicyclic metalloprotease inhibitors” (priority 2006, published 2008)

target: T1, catalytic domain of MMP-13 enzyme (Homo sapiens, UniProt P45452); assay: Assay for determining MMP-13 inhibition (fluorescent substrate); type: biochemical; conditions: Table 1, Summary of MMP-13 Activity for Compounds; read-out: MMP-13 Activity (IC50 MMP-13), Group
T1 construct: 10 μL of a 50 nM stock solution of catalytic domain of MMP-13 enzyme (produced by Alantos)
Procedure: Assay for Determining MMP-13 Inhibition
The typical assay for MMP-13 activity is carried out in assay buffer comprised of 50 mM Tris, pH 7.5, 150 mM NaCl, 5 mM CaCl2 and 0.05% Brij-35. Different concentrations of tested compounds are prepared in assay buffer in 50 μL aliquots. 10 μL of a 50 nM stock solution of catalytic domain of MMP-13 enzyme (produced by Alantos) is added to the compound solution. The mixture of enzyme and compound in assay buffer is thoroughly mixed and incubated for 10 min at room temperature. Upon the completion of incubation, the assay is started by addition of 40 μL of a 12.5 μM stock solution of MMP-13 fluorescent substrate (Calbiochem, Cat. No. 444235). The time-dependent increase in fluorescence is measured at the 320 nm excitation and 390 nm emission by automatic plate multireader. The IC50 values are calculated from the initial reaction rates.

SMILES	IC50 [nM]
Cc1c(C(=O)O)ccc2c1CC[C@@H]2NC(=O)c1cc(C(=O)NCc2ccc3c(c2)NC(=O)CO3)nc2ccccc12 [Example 211]	201 to 20000
N#Cc1cc(C(=O)NCc2ccc3c(c2)NC(=O)CO3)nc2ncnn12 [Example 190]	201 to 20000
O=C1COc2ccc(CNC(=O)c3cc(C(F)(F)F)n4ncnc4n3)cc2N1 [Example 188]	201 to 20000
O=C1COc2ccc(CNC(=O)c3cc(-c4nnn(Cc5ccc(C(=O)O)cc5)n4)n4nccc4n3)cc2N1 [Example 160]	< 200
Cc1c(C(=O)O)ccc2c1CCC2NCc1cc(C(=O)NCc2ccc(F)c(F)c2)nc2ccnn12 (stereo not shown) [Example 29, 1-{[5-(3,4-difluoro-benzylcarbamoyl)-pyrazolo[1,5-a]pyrimidin-7-ylmethyl]-amino}-4-methyl-indan-5-carboxylic acid]	< 200
O=C(NCC12CCC(C(=O)O)(CC1)CC2)Nc1cc(C(=O)NCc2ccc(F)cc2)nc2ccnn12 [Example 208]	< 200
CC(C)(C)c1noc(-c2cc(C(=O)NCc3ccc4c(c3)NC(=O)CO4)nc3c(F)cnn23)n1 [Example 163]	< 200
O=C1COc2ccc(CNC(=O)c3cc(-c4nn[nH]n4)n4ncc(F)c4n3)cc2N1 [Example 141]	< 200
O=C(NCc1ccc(F)cc1)c1cc(NC(=O)C23CCC(C(=O)O)(CC2)CC3)n2nccc2n1 [Example 209]	201 to 20000

Now from value to molecule:

IC50 [nM]	SMILES
201 to 20000	Nc1c(N2CCc3ccc(CNC(=O)c4cc(C(=O)O)n5ncnc5n4)cc3C2)c(=O)c1=O [Example 195]
< 200	CC(C)(C)n1nnc(-c2cc(C(=O)NCc3ccc4c(c3)NC(=O)CO4)nc3ccnn23)n1 [Example 152]
< 200	Cc1c(C(=O)O)ccc2c1CCC2N(CC(=O)O)Cc1cc(C(=O)NCc2ccc(F)c(F)c2)nc2ccnn12 (stereo not shown) [Example 32, 1-{carboxymethyl-[5-(3,4-difluoro-benzylcarbamoyl)-pyrazolo[1,5-a]pyrimidin-7-ylmethyl]-amino}-4-methyl-indan-5-carboxylic acid]
201 to 20000	Cc1cc(CNC(=O)c2cc(C(=O)O)n3nccc3n2)ccc1F [Example 193]
